This note sets out measurements from PMC10814725, “In Vitro Anti-Inflammatory Study of Limonoids Isolated from Chisocheton Plants” (Current Issues in Molecular Biology, 2024).

Where two headings read alike, the source gives them in different places.

The nature of data set [1]: Cell viability by CCK-8, THP-1 cells. The class given is cell-based. As to conditions: human, PMA-differentiated THP-1 cells. As for the experimental part:
(§1) The viability of HEK-Blue^TM hTLR4, […], and THP-1 cells was evaluated using the Dojindo Cell Counting Kit-8 (CCK-8) according to the manufacturer’s instructions. The viability of HEK-Blue^TM hTLR4 and THP-1 cells was assessed under identical conditions to the corresponding assay treatments. HEK-Blue^TM hTLR4 cells (2 × 10^4 cells/well) were seeded in 96-well plates and serum-starved for 24 h at 37 °C in a 5% CO2 atmosphere. After incubation, the culture medium was aspirated, and the cells were washed with saline. High-glucose D-MEM supplemented with 0.1% FBS and 1% penicillin–streptomycin was added and pretreated with or without the 17 limonoids at a concentration of 20 µM for 1 h, followed by LPS addition at a concentration of 10 ng/mL. After 18 h of incubation, a 10% (v/v) CCK-8 solution was added to each well and incubated at 37 °C for 1 h, and cell viability was calculated.
The THP-1 cells at 5 × 10^4 cells/well were differentiated for 24 h in the presence of PMA (0.5 μM solution in medium). After 24 h of incubation, the culture medium was removed from the 96-well plate and the cells were washed with PBS. Fresh RPMI-1640 medium supplemented with 0.1% FBS and 1% penicillin–streptomycin was added to each well and incubated at 37 °C for overnight. The cells were pretreated with 17 limonoids at the corresponding concentration for 1 h followed by the addition of LPS (10 ng/mL) and incubated at 37 °C for 18 h. Furthermore, CCK-8 solution was added to each well with a final concentration was 10% (v/v) and incubated at 37 °C. After 1 h, the absorbance of each well was measured at […] by using a microplate reader (BioTek Cytation 5 Cell Imaging Multimode Reader). Cell viability was calculated using the following formula: % Cell viability=(Absorbance of sample−Absorbance of Background)/(Absorbance of control−Absorbance of Background)×100 where the absorbance of the sample is the absorbance of cells treated by the compound with or without LPS, the absorbance of the control is the absorbance of LPS (−)-treated cells, and the background absorbance is the absorbance of a well containing only the medium. The results were expressed as 100% cell viability.

A short description of data set [2]: Cell viability by CCK-8, HEK-Blue hTLR4 cells. It is filed as cell-based. Conditions: human. As for the experimental part:
as §1

A short description of another data set: in vitro. The class given is cell-based. As to conditions: mouse. As to the method: as §1
The test system of data set [3] is TNF-α, IL-6, IL-1β, and MCP-1. The data set is described as follows: ELISA of pro-inflammatory markers overall (TNF-α, IL-6, IL-1β, MCP-1) in LPS-stimulated THP-1 cells. The class given is cell-based. As to conditions: Homo sapiens, read-out: Overall IC50 values for the evaluated pro-inflammatory markers. As to the method:
(§2) The logarithmic growth phase of THP-1 cells was achieved by seeding in 96-well plates at a density of 5 × 10^4 cells/well and differentiated for 24 h in the presence of PMA (0.5 μM solution in medium). After 24 h of incubation, the culture medium was removed from the 96-well plate and the cells were washed with PBS. Fresh RPMI-1640 medium supplemented with 0.1% FBS and 1% Penicillin–Streptomycin was added to each well and incubated at 37 °C overnight. The cells were pretreated with 17 limonoids at the corresponding concentration for 1 h, followed by the addition of LPS (10 ng/mL) and then incubation at 37 °C for 18 h. Finally, 50 μL of each culture supernatant solution was taken to determine the concentrations of IL-6, MCP-1, and IL-1β using the corresponding commercially available human ELISA kits following the manufacturer’s instructions. The analyte concentration in the supernatant was measured in pg/mL, and the inhibition level was expressed as a fold change compared to the LPS (−) control group. To determine the IC50 value, the dose-response data were normalized to the LPS-stimulated-only group, and the percentage of inhibition was calculated using the following formula: % Inhibition=(Absorbance of LPS+ control−Absorbance of compound treatment with LPS)/(Absorbance of LPS+ control−Absorbance of LPS− control)×100
(§3) Furthermore, the % inhibition data were interpolated into linear equations to determine the IC50 values.
On the technique in general: In an ELISA, binding on a coated surface is turned into a signal by an enzyme label.

The test system of another data set is IL-6. In words: ELISA of IL-6 production in LPS-stimulated THP-1 cells. The class given is cell-based, human. Conditions: Homo sapiens, THP-1, 18 h, LPS-stimulated (10 ng/mL) THP-1 cells, 1, 5, 10, 20 µM, 18 h. As to the method:
as §2, with “Fresh RPMI-1640 medium supplemented with 0.1% FBS and 1% Penicillin–Streptomycin was added to each well and incubated at 37 °C overnight.” left out
as §3

A further data set deals with TNF-α. The data set is described as follows: ELISA of TNF-α production in LPS-stimulated THP-1 cells. The class given is cell-based, human. Conditions: Homo sapiens, THP-1, 18 h, LPS-stimulated (10 ng/mL) THP-1 cells, 1, 5, 10, 20 µM, 18 h; read-out: TNF-α IC50.
For another data set, the system named is MCP-1. The data set is described as follows: ELISA of MCP-1 production in LPS-stimulated THP-1 cells. The class given is cell-based, human. Conditions: Homo sapiens; LPS-stimulated (10 ng/mL) THP-1 cells, 1, 5, 10, 20 µM, 18 h. As for the experimental part:
as §2, with “Fresh RPMI-1640 medium supplemented with 0.1% FBS and 1% Penicillin–Streptomycin was added to each well and incubated at 37 °C overnight.” left out
as §3

[4] abbreviates: LPS 10 ng/mL, read-out: Viability Cell (%) THP-1 LPS-Induced (10 ng/mL).
The mark [5] stands for this setting: without LPS, read-out: Viability Cell (%) THP-1 Without LPS.
[6] abbreviates: Viability Cell (%) HEK-Blue hTLR4 LPS-Induced (10 ng/mL).
Where [7] appears, read: Viability Cell (%) HEK-Blue hTLR4 Without LPS.
Setting [8] is: RAW264.7 macrophages, 5 µM, read-out: Viability cell (%) RAW 264.7 5 µM.
[9] abbreviates: RAW264.7 macrophages, 10 µM, read-out: Viability cell (%) RAW 264.7 10 µM.
Setting [10] is: RAW264.7 macrophages, 20 µM, read-out: Viability cell (%) RAW 264.7 20 µM.

Regarding `CC1(C)C(=O)C=C[C@]2(C)[C@H]3CC[C@]4(C)C(C(=O)C[C@H]4c4ccoc4)[C@]3(C)[C@H](O)C[C@@H]12` (stereo partly drawn) [Compound 1, 7α-hydroxyneotrichilenone], the viability at 18 h, 10 µM in data set [1] (setting [4]) was more than 99.9%. Besides, the viability at 18 h, 10 µM in data set [1] (setting [5]) is more than 99.9%. Also, the viability at 18 h, 20 µM in data set [2] (setting [6]) is more than 99.9%. In addition, in data set [2] (setting [7]), the viability at 18 h, 20 µM was more than 99.9%. Besides, in the data set “in vitro”, the viability at 5 µM is more than 99.9%, the viability at 10 µM is more than 99.9% and the viability at 20 µM was more than 99.9%.
Turning to `CC(=O)O[C@@H]1C[C@H]2C(C)(C)C(=O)C=C[C@]2(C)[C@H]2CC[C@]3(C)C(C(=O)C[C@H]3c3ccoc3)[C@@]21C` (stereo partly drawn) [Compound 2, 7α-acetylneotrichilenone], the viability at 18 h, 10 µM in data set [1] (setting [4]) was more than 99.9%. For the same molecule, the viability at 18 h, 10 µM in data set [1] (setting [5]) is more than 99.9%. For the same molecule, the viability at 18 h, 20 µM in data set [2] (setting [6]) worked out at 75.5 ± 13.8%. For the same molecule, in data set [2] (setting [7]), the viability at 18 h, 20 µM came to 61.2 ± 1.22%. Further, in the data set “in vitro”, the viability at 5 µM stood at 96.2 ± 3.67%, the viability at 10 µM was more than 99.9% and the viability at 20 µM is more than 99.9%.
Take `CC(=O)O[C@H]1[C@@H](OC(C)=O)[C@@]2(C)C3=CC[C@@H](C4=CCOC4=O)[C@]3(C)CC[C@@H]2[C@@]2(C)C=CC(=O)C(C)(C)[C@H]12` [Compound 6, lasiocarpine A]: the viability at 18 h, 10 µM was more than 99.9% in data set [1] (setting [4]) and 90.7 ± 3.82% in data set [1] (setting [5]). The viability at 18 h, 20 µM in data set [2] (20 µM, 18 h, LPS 10 ng/mL, read-out: Viability Cell (%) HEK-Blue hTLR4 LPS-Induced (10 ng/mL)) worked out at 58.3 ± 1.89%; in data set [2] (20 µM, 18 h, without LPS, read-out: Viability Cell (%) HEK-Blue hTLR4 Without LPS) it was 77.1 ± 2.13%. For the same molecule, the viability at 5 µM in the data set “in vitro” (5 µM, read-out: Viability cell (%) RAW 264.7 5 µM) was 103 ± 6.05%. Besides, in the data set “in vitro” (10 µM, read-out: Viability cell (%) RAW 264.7 10 µM), the viability at 10 µM is more than 99.9%. In addition, the viability at 20 µM in the data set “in vitro” (20 µM, read-out: Viability cell (%) RAW 264.7 20 µM) is 96.7 ± 2.14%.
For the molecule `CC(=O)O[C@H]1[C@@H](OC(C)=O)[C@@]2(C)C3C(=O)C[C@@H](c4ccoc4)[C@]3(C)CC[C@@H]2[C@@]2(C)C=CC(=O)C(C)(C)[C@H]12` (stereo partly drawn) [Compound 7, toonaciliatone F], the viability at 18 h, 10 µM in data set [1] (setting [4]) was more than 99.9%. Besides, in data set [1] (setting [5]), the viability at 18 h, 10 µM was more than 99.9%. In addition, the viability at 18 h, 20 µM in data set [2] (setting [6]) was 87.3 ± 4%. Also, the viability at 18 h, 20 µM in data set [2] (setting [7]) is 92.9 ± 2.11%. In the data set “in vitro”, the viability at 5 µM is more than 99.9%, the viability at 10 µM was more than 99.9% and the viability at 20 µM is 95.9 ± 2.19%.
As for `CC(=O)O[C@H]1[C@@H](OC(C)=O)[C@]2(C)[C@H](CCC3=C(c4ccoc4)C[C@@H](O)[C@]32C)[C@@]2(C)C=CC(=O)C(C)(C)[C@H]12` [Compound 8, toonaciliatone C], the viability at 18 h, 10 µM in data set [1] (setting [4]) is 94 ± 9.84%; in data set [1] (setting [5]) it was more than 99.9%. The viability at 18 h, 20 µM in data set [2] (HEK-Blue hTLR4 cells, 20 µM, 18 h, LPS 10 ng/mL, read-out: Viability Cell (%) HEK-Blue hTLR4 LPS-Induced (10 ng/mL)) was 88 ± 6.37%; in data set [2] (HEK-Blue hTLR4 cells, 20 µM, 18 h, without LPS, read-out: Viability Cell (%) HEK-Blue hTLR4 Without LPS), more than 99.9%. Also, the viability at 5 µM in the data set “in vitro” (setting [8]) is 89.5 ± 9.38%. Moreover, the viability at 10 µM in “in vitro” (setting [9]) amounted to 94.75 ± 0.32%. Besides, the viability at 20 µM in the data set “in vitro” (setting [10]) was determined as 87.5 ± 3.33%.
Regarding `CC(=O)O[C@H]1[C@@H](OC(C)=O)[C@]2(C)[C@H](CC[C@@]3(C)[C@H](c4ccoc4)C(=O)[C@H]4O[C@@]423)[C@@]2(C)C=CC(=O)C(C)(C)[C@H]12` [Compound 10, 6α-acetylepoxyazadirone], the viability at 18 h, 10 µM in data set [1] (setting [4]) is more than 99.9%. The viability at 18 h, 10 µM in data set [1] (setting [5]) is more than 99.9%. The viability at 18 h, 20 µM in data set [2] (setting [6]) was more than 99.9%. Besides, the viability at 18 h, 20 µM in data set [2] (setting [7]) is more than 99.9%. Moreover, in the data set “in vitro”, the viability at 5 µM stood at 93.2 ± 4.2%, the viability at 10 µM came to 82.1 ± 1.31% and the viability at 20 µM worked out at 86.1 ± 4.07%.
As a reminder, the IC50 is the midpoint of a concentration-inhibition curve. On to `C[C@]12C3=CC[C@@H](C4=CC(O)OC4=O)[C@]3(C)CC[C@@H]1[C@@]1(C)C(=O)C=C[C@@]3(C)CO[C@@H]([C@H]2O)[C@H]13` (stereo partly drawn) [Compound 14, pentandricine], for which the viability at 18 h, 10 µM in data set [1] (setting [4]) worked out at 91.1 ± 9.03%. Also, the viability at 18 h, 10 µM in data set [1] (setting [5]) is more than 99.9%. For the same molecule, the viability at 18 h, 20 µM in data set [2] (setting [6]) is more than 99.9%. Further, in data set [2] (setting [7]), the viability at 18 h, 20 µM was more than 99.9%. Further, the IC50 in data set [3] was less than 20 µM. In the data set “in vitro”, the viability at 5 µM is more than 99.9%, the viability at 10 µM came out at 88.2 ± 3.86% and the viability at 20 µM is 91.3 ± 4.19%.
As a reminder, the CC50 is the concentration that lowers cell viability or growth by half. A high value points to lower toxicity to the cells. `C[C@@H]1C[C@H]2[C@@H]3CCC4=CC(=O)C=C[C@]4(C)[C@@]3(F)[C@@H](O)C[C@]2(C)[C@@]1(O)C(=O)CO` [Dex, dexamethasone, reference compound]: in data set [1] (concentration causing 50% cytotoxicity against THP-1 cells), the CC50 at 18 h turned out to be 28.2 µM. The values for the IC50 in the data set on IL-6, in the data set with TNF-α and in the data set with MCP-1 were 720 nM, 2170 nM and 500 nM, respectively.
`COc1cc([C@@H]2c3cc4c(cc3[C@@H](O[C@@H]3O[C@@H]5CO[C@@H](C)O[C@H]5[C@H](O)[C@H]3O)[C@H]3COC(=O)[C@H]23)OCO4)cc(OC)c1O` [Etoposide, reference compound]: the viability at 5 µM in the data set “in vitro” (setting [8]) turned out to be 67.5 ± 2.36%. Besides, in “in vitro” (setting [9]), the viability at 10 µM was 54.8 ± 2.58%. Further, in the data set “in vitro” (setting [10]), the viability at 20 µM was 38.9 ± 3.19%.
